Among the test systems are LOX IMVI; HOP-92; U-251; UO-31; M14; 786-0; SN12C; A498; OVCAR-8; NCI-H522; HOP-62; TK-10; NCI/ADR-RES; SNB-19; SK-MEL-28; OVCAR-3; HL-60; SF-295; OVCAR-5; HCC 2998.
Holding throughout (assay): growth of human tumour cells (NCI), 48 h

Data on 7 compounds can be found in ChEMBL document CHEMBL1201862, “PubChem BioAssay data set” (2004).

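Briefly, cells in 96-well plates were exposed to five compound concentrations for 48 h, and endpoints were estimated by linear interpolation. Here, GI50 denotes the concentration required for 50% inhibition of growth.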 The source made the active and inactive calls. No stated cut-off is given here; in the data, active = GI50 up to about 1.1 µM and inactive = higher.

As for `CC(C)(C)C(=O)C(C(=O)C(C)(C)C)C(=O)C(C)(C)C`, the GI50 in the assay with LOX IMVI, with HOP-92, in the assay with U-251, with UO-31, in the assay with M14 and in the assay on 786-0 was > 100 µM (inactive) in each case. For the same compound, the GI50 in the assay with SN12C, in the assay on A498, in the assay on OVCAR-8, in the assay with NCI-H522, in the assay on HOP-62 and with TK-10 was > 100 µM (inactive) in each case. Also, the GI50 in the assay on NCI/ADR-RES, with SNB-19, in the assay on SK-MEL-28, in the assay on OVCAR-3, in the assay on HL-60 and with SF-295 was > 100 µM (inactive) throughout. Also, the GI50 with OVCAR-5 and in the assay on HCC 2998 was > 100 µM (inactive) in each case.

For `C=C1CC[C@H](O)C(C)(C)[C@@H]1CC/C(C)=C/CC/C=C(\C)CC/C=C(\C)CCC=C(C)C`, the GI50 with LOX IMVI, in the assay with HOP-92, in the assay with U-251, in the assay on UO-31, in the assay with M14 and in the assay with 786-0 was > 100 µM (inactive) throughout. The GI50 in the assay with SN12C was 66.2 µM (inactive); in the assay with A498 it was > 100 µM (inactive); in the assay with OVCAR-8 it was 57.8 µM (inactive); in the assay with NCI-H522 it was 29 µM (inactive); with HOP-62 it was > 100 µM (inactive); in the assay on TK-10, > 100 µM (inactive). Moreover, the GI50 in the assay on NCI/ADR-RES was > 100 µM (inactive); in the assay with SNB-19 it was > 100 µM (inactive); in the assay on SK-MEL-28, > 100 µM (inactive); with OVCAR-3, > 100 µM (inactive); in the assay with HL-60, 13.5 µM (inactive); in the assay with SF-295, > 100 µM (inactive). Moreover, the GI50 in the assay on OVCAR-5 is > 100 µM (inactive); in the assay on HCC 2998, 76.6 µM (inactive).

`C[C@@H](CC(O)C(O)C(C)(C)O)C1CCC23CC12CCC1[C@@]2(C)CCC(=O)C(C)(C)C2CC(OC2OC(CO)C(O)C(O)C2O)[C@]13C` (stereo not given in full): the GI50 in the assay on LOX IMVI, in the assay on HOP-92, with U-251, with UO-31, with M14 and in the assay on 786-0 was > 10 µM (inactive) each time. Besides, the GI50 in the assay with SN12C, in the assay with A498, with OVCAR-8, in the assay on NCI-H522, in the assay with HOP-62 and in the assay with TK-10 was > 10 µM (inactive) in each case. In addition, the GI50 in the assay on NCI/ADR-RES, in the assay with SNB-19, in the assay on SK-MEL-28, with OVCAR-3, in the assay with HL-60 and with SF-295 was > 10 µM (inactive) throughout. The GI50 in the assay with OVCAR-5 and in the assay with HCC 2998 was > 10 µM (inactive) each time.

Turning to `O=c1c2ccccc2n2c(-c3ccccc3O)nnc2n1-c1ccccc1`, the GI50 in the assay on LOX IMVI was > 100 µM (inactive); in the assay on HOP-92, > 100 µM (inactive); in the assay with U-251 it was > 100 µM (inactive); in the assay with UO-31 it was 2.76 µM (inactive); in the assay on M14, > 100 µM (inactive); with 786-0, > 100 µM (inactive). Moreover, the GI50 in the assay with SN12C, in the assay on A498, in the assay on OVCAR-8, in the assay on NCI-H522, with HOP-62 and in the assay on TK-10 was > 100 µM (inactive) in each case. Besides, the GI50 in the assay with NCI/ADR-RES, in the assay on SNB-19, in the assay on SK-MEL-28, in the assay on OVCAR-3, in the assay with HL-60 and with SF-295 was > 100 µM (inactive) in each case. In addition, the GI50 in the assay with OVCAR-5 and in the assay on HCC 2998 was > 100 µM (inactive) in each case.

For the compound `CNC(=O)c1cc2nc3ccccc3c(=O)n2c2ccccc12`, the GI50 in the assay with LOX IMVI, in the assay with HOP-92, in the assay on U-251, in the assay with UO-31, in the assay on M14 and in the assay with 786-0 was > 10 µM (inactive) in each case. Also, the GI50 in the assay with SN12C, in the assay with A498, with OVCAR-8, with NCI-H522, in the assay with HOP-62 and with TK-10 was > 10 µM (inactive) in each case. The GI50 in the assay on NCI/ADR-RES, in the assay on SNB-19, with SK-MEL-28, in the assay with OVCAR-3, in the assay with HL-60 and with SF-295 was > 10 µM (inactive) in each case. Besides, the GI50 in the assay on OVCAR-5 and in the assay with HCC 2998 was > 10 µM (inactive) throughout.

For `CN(CCCNC(=O)c1cn(C)c2c1ccc1cc(Cl)ccc12)CCCNC(=O)c1cn(C)c2c1ccc1cc(Cl)ccc12`, the GI50 with LOX IMVI is 1.64 µM (inactive); in the assay on HOP-92, 3.6 µM (inactive); in the assay on U-251, 1.71 µM (inactive); with UO-31 it was 1.41 µM (inactive); with M14, 1.85 µM (inactive); in the assay with 786-0 it was 1.65 µM (inactive). Besides, the GI50 was 1.87 µM (inactive) in the assay with SN12C; 5.86 µM (inactive) with A498; 1.82 µM (inactive) in the assay with OVCAR-8; 1.75 µM (inactive) with NCI-H522; 1.65 µM (inactive) in the assay on HOP-62; 2.47 µM (inactive) in the assay on TK-10. In addition, the GI50 was 2.16 µM (inactive) with NCI/ADR-RES; 2.39 µM (inactive) in the assay on SNB-19; 1.73 µM (inactive) in the assay on SK-MEL-28; 1.9 µM (inactive) in the assay with OVCAR-3; 0.914 µM (active) with HL-60; 2 µM (inactive) with SF-295. The GI50 with OVCAR-5 was 3.09 µM (inactive); in the assay on HCC 2998, 1.2 µM (inactive).

In the case of `Cc1cc(C)c(NC(=S)NC(=O)c2ccccc2)cc1C`, the GI50 in the assay with LOX IMVI is > 100 µM (inactive); in the assay on HOP-92 it was > 100 µM (inactive); in the assay on U-251, 64.1 µM (inactive); in the assay on UO-31, > 100 µM (inactive); with M14, > 100 µM (inactive); with 786-0, > 100 µM (inactive). Also, the GI50 with SN12C, in the assay on A498, with OVCAR-8, in the assay with NCI-H522, in the assay on HOP-62 and in the assay on TK-10 was > 100 µM (inactive) each time. The GI50 was > 100 µM (inactive) with NCI/ADR-RES; > 100 µM (inactive) with SNB-19; > 100 µM (inactive) in the assay with SK-MEL-28; > 100 µM (inactive) in the assay on OVCAR-3; > 100 µM (inactive) in the assay on HL-60; 34.4 µM (inactive) with SF-295. In addition, the GI50 in the assay with OVCAR-5 and in the assay on HCC 2998 was > 100 µM (inactive) in each case.
